Entries after “also recorded” stand apart in the source; their conditions may differ. Where two headings read alike, the source gives them in different places.
Legend:
[1] = system: ER-mitochondria Ca^2+ transfer; assay: Oxidative stress (H2O2 / MSC)-induced mitochondrial Ca2+ levels in cerebral cortical neurons; format: cell-based, mouse
Description: At this time, to measure mitochondrial Ca^2+ levels at specific time points during incubation of neurons with H2O2, Rhod2/AM, which is a mitochondria-specific chemical Ca^2+ indicator, was used instead of Mito-GCaMP6 capable of causing variations due to different expression levels of Mito-GCaMP6 at multiple time points.

[2] = system: ER-mitochondria Ca^2+ transfer; assay: Corticosterone-induced mitochondrial Ca2+ levels in cerebral cortical neurons; format: cell-based, mouse; settings: for corticosterone-induced increase in mitochondrial Ca2+ levels: preincubation with the agent
Description: (§1) To verify the hypothesis, changes in ROS and mitochondrial Ca^2+ levels in cerebral cortical neurons were assessed after treatment with corticosterone (CORT), which is a glucocorticoid stress hormone.

[3] = system: cerebral cortical neurons; assay: Corticosterone-induced ROS generation in cerebral cortical neurons; format: cell-based, mouse
Description: as §1

[4] = system: cerebral cortical neurons; assay: ER Ca2+ storage capacity / IP3 generation after corticosterone; format: cell-based, mouse; settings: corticosterone for 1 hour
Description: To verify the hypothesis, changes in ROS and mitochondrial Ca^2+ levels in cerebral cortical neurons were assessed after treatment with corticosterone (CORT), which is a glucocorticoid stress hormone. […] To determine whether this glucocorticoid-dependent increase in mitochondrial Ca^2+ levels relies on the induction of oxidative stress, apocynin (APO), which is an antioxidant and a ROS scavenger, was used. […] In contrast, it was confirmed that, when neurons were treated with corticosterone for 1 hour, the capacity of the ER for Ca^2+ storage or IP3 generation was not changed.

IP3R1 [5] = assay: Competitive IP3 binding assay; settings: proteins immunoprecipitated from HEK293FT cells; 3 nM [3H]-IP3, 4° C., 1 hour
Description: Transfected HEK293FT cells were lysed in a NP40 buffer, and then the proteins were immunoprecipitated with antibodies. The immunoprecipitated proteins were incubated with 3 nM [^3H]-IP3 at 4° C. for 1 hour and the concentration of cold IP3 was increased in a Ca^2+-free CLM buffer. Meanwhile, brains were isolated from adult WT or DISC1 LI mice and lysed in a NP40 buffer by sonication, and then endogenous IP3R1 and the DISC1 protein were immunoprecipitated with specific antibodies, and then incubated with [^3H]-IP3 in the same manner as described above, and the concentration of cold IP3 was increased. Thereafter, the resulting mixture was filtered with a GF/B filter and washed three times with a CLM buffer, and then the filter was dried, and radioactivity was measured using a scintillation counter.
In IP3R1, the ligand-binding and modulatory domains are critical regions for ligand binding of IP3Rs, and thus the inventors of the present disclosure examined the influence of DISC1 on binding between IP3R1 and its ligand, i.e., IP3. For this, competitive IP3 binding analysis was performed using IP3R1, DISC1, or DISC1^Δ1-201, which was isolated from HEK293FT cells by immunoprecipitation with antibodies according to the methods of Examples 1 to 3.

IP3R1 [6] = assay: Immunoprecipitation analysis of interaction between DISC1 and IP3R1; format: binding
Text: IP3R1 is known to be predominantly expressed in the brain and abundant in the MAM. Therefore, the MAM localization of DISC1 was confirmed through Example 2, and to examine the interaction between DISC1 and IP3R1, the inventors of the present disclosure performed immunoprecipitation analysis on the two proteins. […] In addition, as illustrated in the immunoblotting results of FIG. 2C, it was confirmed that the endogenous DISC1 protein and the IP3R1 protein were expressed together in whole lysates and the crude MAM fraction ((MAM+Mito), which was derived from the brains of adult mice.

[7] = system: ER-mitochondria Ca^2+ transfer; assay: IP3-induced mitochondrial Ca2+ imaging (Mito-GCaMP6) in permeabilized cerebral cortical neurons; format: cell-based, mouse
Description: Neurons (DIV7-8) transfected with Mito-GCaMP6 along with each construct were permeabilized with digitonin and Ca^2+-free ionomycin at 37° C. for 2 minutes in a modified EGTA- and Ca^2+-free buffer, and then was exposed to IP3. To measure the effect of RiBFM on mitochondrial Ca^2+ responses, neurons were transfected with Mito GCaMP6, AKAP1-FKBP12, and FRB-SAC1 together with pFlag-cmv2 or Flag-DISC1 on DIV5-6, and neurons pre-incubated with rapamycin for 5 minutes were exposed to IP3 in the same manner as described above.
By considering the functional association between IP3R1 and DISC1 at the MAM, which was verified in the above example, the inventors of the present disclosure examined whether or not DISC1 was involved in regulating ER-mitochondria Ca^2+ transfer. For this, expression constructs for GCaMP6, which is a genetically encoded Ca^2+ indicator, were modified by combining the target sequences for mitochondria or the ER. Subsequently, it was confirmed that the organelle-specific GCaMP6 constructs were expressed in cerebral cortical neurons. In the case of ER Ca^2+ measurement, the results were verified using ER-GCaMP3, which has a relatively low affinity for Ca^2+. […]

[8] = treatment with corticosterone for 1 hour

NCCOB(c1ccccc1)c1ccccc1 [2-APB, 2-aminoethyl diphenylborinate]
mitochondrial Ca2+ levels during incubation with H2O2 [1]: these results were not shown
corticosterone-induced increase in mitochondrial Ca2+ levels [2]: not observed

COc1cc(C(C)=O)ccc1O [APO, apocynin]
corticosterone-induced mitochondrial Ca2+ levels ([2]; DISC1 shRNA vs CTL shRNA neurons, corticosterone 1 hour): significantly reduced
difference in mitochondrial Ca2+ accumulation between WT and DISC1 LI neurons ([2]; corticosterone): significantly reduced
corticosterone-induced increase in mitochondrial Ca2+ levels [2]: significantly reduced

OO [H2O2, Hydrogen peroxide]
mitochondrial Ca2+ levels during incubation with H2O2 ([1]; Rhod2/AM, specific time points): increased proportional to the incubation time

C[C@]12C[C@H](O)[C@H]3[C@@H](CCC4=CC(=O)CC[C@@]43C)[C@@H]1CC[C@@H]2C(=O)CO [corticosterone]
mitochondrial Ca2+ levels [2, 8]: significant increases
ROS levels [3, 8]: significant increases
capacity of the ER for Ca2+ storage or IP3 generation [4]: not changed

B1: DISC1: disrupted in schizophrenia 1 (DISC1) protein, amino acid sequence of SEQ ID NO: 1 or SEQ ID NO: 2 (protein, UniProt Q9NRI5 1-854, looked up)
Disrupted in schizophrenia 1 …: MPGGGPQGAPAAAGGGGVSHRAGSRDCLPPAACFRRRRLARRPGYMRSSTGPGIGFLSPAVGTLFRFPGGVSGEESHHSESRARQCGLDSRGLLVRSPVSKSAAAPTVTSVRGTSAHFGIQLRGGTRLPDRLSWPCGPGSAGWQQEFAAMDSSETLDASWEAACSDGARRVRAAGSLPSAELSSNSCSPGCGPEVPPTPPGSHSAFTSSFSFIRLSLGSAGERGEAEGCPPSREAESHCQSPQEMGAKAASLDGPHEDPRCLSRPFSLLATRVSADLAQAARNSSRPERDMHSLPDMDPGSSSSLDPSLAGCGGDGSSGSGDAHSWDTLLRKWEPVLRDCLLRNRRQMEVISLRLKLQKLQEDAVENDDYDKAETLQQRLEDLEQEKISLHFQLPSRQPALSSFLGHLAAQVQAALRRGATQQASGDDTHTPLRMEPRLLEPTAQDSLHVSITRRDWLLQEKQQLQKEIEALQARMFVLEAKDQQLRREIEEQEQQLQWQGCDLTPLVGQLSLGQLQEVSKALQDTLASAGQIPFHAEPPETIRSLQERIKSLNLSLKEITTKVCMSEKFCSTLRKKVNDIETQLPALLEAKMHAISGNHFWTAKDLTEEIRSLTSEREGLEGLLSKLLVLSSRNVKKLGSVKEDYNRLRREVEHQETAYETSVKENTMKYMETLKNKLCSCKCPLLGKVWEADLEACRLLIQSLQLQEARGSLSVEDERQMDDLEGAAPPIPPRLHSEDKRKTPLKVLEEWKTHLIPSLHCAGGEQKEESYILSAELGEKCEDIGKKLLYLEDQLHTAIHSHDEDLIQSLRRELQMVKETLQAMILQLQPAKEAGEREAAASCMTAGVHEAQA
binding ability of unlabeled IP3 relative to [3H]IP3 bound to IP3R1 (IP3R1 [5]): decreased
IP3R1 domains that DISC1 interacted with (IP3R1 [6]; expression constructs for functional domains of IP3R1): a ligand-binding domain (LBD) and modulatory domains (MD1, MD2, and MD3)
interaction with IP3R1 (GFP-IP3R1) (IP3R1 [6]; immunoprecipitation): strong interaction
IP3-induced increase in mitochondrial Ca2+ levels ([7]; overexpression in permeabilized neurons, compared to control (Vector)): significantly reduced the increase in mitochondrial Ca^2+ levels; also recorded: decreased
degree to which mitochondrial Ca2+ levels were increased ([1]; overexpression, 1 hour after H2O2 incubation, compared to control): significantly reduced
corticosterone-induced ROS generation ([3]; DISC1 knockdown or overexpression in neurons): reduced ROS levels

B2: hDISC1: human DISC1 resistant to shRNA (protein, UniProt Q9NRI5 1-854, looked up)
Disrupted in schizophrenia 1 …: MPGGGPQGAPAAAGGGGVSHRAGSRDCLPPAACFRRRRLARRPGYMRSSTGPGIGFLSPAVGTLFRFPGGVSGEESHHSESRARQCGLDSRGLLVRSPVSKSAAAPTVTSVRGTSAHFGIQLRGGTRLPDRLSWPCGPGSAGWQQEFAAMDSSETLDASWEAACSDGARRVRAAGSLPSAELSSNSCSPGCGPEVPPTPPGSHSAFTSSFSFIRLSLGSAGERGEAEGCPPSREAESHCQSPQEMGAKAASLDGPHEDPRCLSRPFSLLATRVSADLAQAARNSSRPERDMHSLPDMDPGSSSSLDPSLAGCGGDGSSGSGDAHSWDTLLRKWEPVLRDCLLRNRRQMEVISLRLKLQKLQEDAVENDDYDKAETLQQRLEDLEQEKISLHFQLPSRQPALSSFLGHLAAQVQAALRRGATQQASGDDTHTPLRMEPRLLEPTAQDSLHVSITRRDWLLQEKQQLQKEIEALQARMFVLEAKDQQLRREIEEQEQQLQWQGCDLTPLVGQLSLGQLQEVSKALQDTLASAGQIPFHAEPPETIRSLQERIKSLNLSLKEITTKVCMSEKFCSTLRKKVNDIETQLPALLEAKMHAISGNHFWTAKDLTEEIRSLTSEREGLEGLLSKLLVLSSRNVKKLGSVKEDYNRLRREVEHQETAYETSVKENTMKYMETLKNKLCSCKCPLLGKVWEADLEACRLLIQSLQLQEARGSLSVEDERQMDDLEGAAPPIPPRLHSEDKRKTPLKVLEEWKTHLIPSLHCAGGEQKEESYILSAELGEKCEDIGKKLLYLEDQLHTAIHSHDEDLIQSLRRELQMVKETLQAMILQLQPAKEAGEREAAASCMTAGVHEAQA
modifications: shRNA-resistant silent changes
notes: human DISC1 resistant to shRNA
IP3-dependent increase in mitochondrial Ca2+ ([7]; DISC1 expression inhibited, compared to control neurons (CTL shRNA)): restored similarly to the control

From US20190167761A1, “PHARMACEUTICAL COMPOSITION FOR PREVENTING OR TREATING STRESS-RELATED DISEASE, INCLUDING DISC1 PROTEIN OR GENE ENCODING THE SAME” (POSTECH ACADEMY-INDUSTRY FOUNDATION, priority 2017, published 2019)
